According to patent EP2253620B1, “SUBSTITUTED 3-CYANOQUINOLINES AS PROTEIN TYROSINE KINASES INHIBITORS” (Wyeth Holdings LLC, priority 1998, dated 2000):
≈ marks a conversion by molar mass, not a printed value. Read-outs that look alike come from different tables or passages of the source.

Columns and labels:
MDAMB435 = assay: Inhibition of Cancer Cell Growth as Measured by Cell Number; format: cell-based, Human; details: Homo sapiens, MDA-MB-435; 48 hours exposure, Sulforhodamine B
Protocol: (§1) Inhibition of Cancer Cell Growth as Measured bv Cell Number
(§2) Human tumor cell lines were plated in 96-well plates (250 µl/well, 1-6 x 10^4 cells/ml) in RPMI 1640 medium, containing 5% FBS (Fetal Bovine Serum). […] After 48 hours exposure to test compounds, cells were fixed with trichloroacetic acid, and stained with Sulforhodamine B. After washing with trichloroacetic acid, bound dye was solubilized in 10 mM Tris base and optical density was determined using plate reader. Under conditions of the assay the optical density is proportional to the number of cells in the well. […] The test procedure is described in details by Philip Skehan et. al, J.Natl. Canc. Inst., 82, 1107-1112 (1990). […] Information about some of the cell lines used in these test procedures is available from the American Type Tissue Collection: Cell Lines and Hybridomas, 1994 Reference Guide, 8th Edition.

SKBR3 = assay: as above; format: cell-based, Human; details: Homo sapiens, SK-BR-3; 48 hours exposure, Sulforhodamine B
Protocol: as §1, §2

SW620 = assay: as above; format: cell-based, Human; details: Homo sapiens, SW-620; 48 hours exposure, Sulforhodamine B
Protocol: as §1, §2

A431 = assay: as above; format: cell-based, Human; details: Homo sapiens, A-431; 48 hours exposure, Sulforhodamine B
Protocol: as §1, §2

erbB2 = erbB2 (Homo sapiens, UniProt P04626); assay: erbB2 inhibition at a single concentration; format: biochemical; details: read-out: erbB2 % Inh 2 µg/mL
Mek and Erk = Mek and Erk (Homo sapiens, UniProt P28482+Q02750); assay: Mitogen Activated Protein Kinase (MAPK) coupled assay (Mek-Erk); format: biochemical
Protocol: Mitogen Activated Protein Kinase (MAPK) Assay
To evaluate inhibitors of the MAP (mitogen activated protein) kinase a two component coupled standard pharmacological test procedure, which measures phosphorylation of a serine/threonine residue in an appropriate sequence in the substrate in the presence and absence of a putative inhibitor, was used. Recombinant human MEK 1 (MAPKK) was first used to activate recombinant human ERK2 (MAPK) and the activated MAPK (ERK) was incubated with substrate (MBP peptide or MYC peptide) in the presence of ATP, Mg^+2 and radiolabeled ^33P ATP. The phosphorylated peptide was captured on a P 81 phosphocellulose filter (paper filter or embedded in microtiter plate) washed and counted by scintillation methods.
The peptide substrates used in the assay are MBP, peptide substrate ([…]), or synthetic Myc substrate, ([…]•5 TFA. The recombinant enzymes used were prepared as GST fusion proteins of human ERK 2 and human MEK 1. Inhibitor samples were prepared as 10X stocks in 10% DMSO and an appropriate aliquot was used to deliver either 10 ug/ml for a single point screening dose or 100, 10, 1, and 0.1 uM final concentration for a dose response curve. Final DMSO concentrations were less than or equal to 1%.
The reaction was run as follows in 50 mM Tris kinase buffer, pH 7.4 in a reaction volume of 50 ul. The appropriate volume of kinase buffer and inhibitor sample was added to the tube. Appropriate dilution of enzyme was delivered to give 2-5 ug recombinant MAPK (Erk ) per tube. The inhibitor was incubated with MAPK (Erk) for 30 min at 0 deg. C. Recombinant Mek (MAPKK) ( 0.5-2.5 ug) or fully activated Mek (0.05-0.1 units) was added to activate the Erk and incubated for 30 min at 30° C. Then substrate and gamma ^33P ATP was were added to give a final concentration of 0.5- 1 mM MBPP or 250-500 uM Myc; 0.2-0.5 uCi gamma P 33 ATP/tube; 50 µM ATP final concentration. Samples were incubated at 30°C for 30 minutes and the reaction was stopped by adding 25 µl of ice cold 10 %TCA .After samples were chilled on ice for 30 min, 20 µl of sample was transferred onto P 81 phosphocellulose filter paper or appropriate MTP with embedded P 81 filter. Filter papers or MTP were washed 2 times with a large volume of 1% acetic acid, then 2 times with water. The filters or MTP were briefly air dried before addition of scintillant and samples were counted in the appropriate scintillation counter set up for reading ^33P isotope. Samples included a positive control (activated enzyme plus substrate); a no enzyme control; a no substrate control; samples with different concentrations of putative inhibitor; and samples with reference inhibitors (other active compounds or non-specific inhibitors such as staurosporine or K252 B).
The raw data was captured as cpm. Sample replicates were averaged and corrected for background count. Mean cpm data was tabulated by group and % inhibition by a test compound was calculated as (corrected cpm control- corrected. cpm sample/control) X 100 = % inhibition. […] The results obtained for representative compounds of this invention are listed in TABLE 2 where there may be separate entries for the same compound; this is an indication that the compound was evaluated more than one time.

[1] = target: T1, epidermal growth factor receptor kinase (Homo sapiens, UniProt P00533); assay: Inhibition of Epidermal Growth Factor Receptor Kinase (EGF-R) using recombinant enzyme; format: biochemical; details: averages of the individual determinations
T1 construct: containing the EGFR cDNA encoding amino acids 645 - 1186 preceded by Met-Ala-(His)6; made in house; host or cells: Sf9 insect cells, recombinant baculovirus vHcEGFR52
Protocol: Representative test compounds were evaluated for their ability to inhibit the phosphorylation of the tyrosine residue of a peptide substrate catalyzed by the enzyme epidermal growth factor receptor kinase. […] The enzyme used in this assay is the His-tagged cytoplasmic domain of EGFR. A recombinant baculovirus (vHcEGFR52) was constructed containing the EGFR cDNA encoding amino acids 645 - 1186 preceded by Met-Ala-(His)6. Sf9 cells in 100 mm plates were infected at an moi of 10 pfu/cell and cells were harvested 48 h post infection. A cytoplasmic extract was prepared using 1% Triton X-100 and applied to Ni-NTA column. After washing the column with 20 mM imidazole, HcEGFR was eluted with 250 mM imidazole (in 50 mM Na2HPO4, pH 8.0, 300 mM NaCl). Fractions collected were dialyzed against 10 mM HEPES, pH 7.0, 50 mM NaCl, 10% glycerol, 1ug/mL antipain and leupeptin and 0.1 mM Pefabloc SC. The protein was frozen in dry ice/methanol and stored -70°C.
Test compounds were made into 10 mg/mL stock solutions in 100% dimethylsulfoxide (DMSO). Prior to experiment, stock solutions were diluted to 500 uM with 100% DMSO and then serially diluted to the desired concentration with HEPES buffer (30 mM HEPES pH 7.4).
For the enzyme reaction, 10 µL of each inhibitor (at various concentrations) were added to each well of a 96-well plate. To this was added 3 µL of enzyme (1:10 dilution in 10mM HEPES, pH 7.4 for final conc. of 1:120). This was allowed to sit for 10 min on ice and was followed by the addition of 5 µl peptide (80 µM final conc.), 10 µl of 4X Buffer (Table A), 0.25 µL ^33P-ATP and 12 µL H2O. The reaction was allowed to run for 90 min at room temperature and was followed by spotting the entire volume on to precut P81 filter papers. The filter discs were washed 2X with 0.5% phosphoric acid and radioactivity was measured using a liquid scintillation counter.
The % inhibition of the test compound was determined for at least three different concentrations and the IC50 value was evaluated from the dose response curve. […] CPM(control) is in units of counts per minute and was a number expressing the amount of radiolabled ATP (g-^33P) incorporated into the RR-SRC peptide substrate by the enzyme after 90 minutes at room temperature in the absence of test compound as measured by liquid scintillation counting. The CPM values were corrected for the background counts produced by ATP in the absence of the enzymatic reaction. The IC50 values in TABLE 1 are averages of the individual determinations.

[2] = target: Epithelial Cell Kinase (ECK) (Homo sapiens, UniProt P29317); assay: Inhibition of Epithelial Cell Kinase (ECK) tyrosine kinase activity; format: biochemical
Protocol: In this standard pharmacological test procedure, a biotinylated peptide substrate is first immobilized on neutravidin-coated microtiter plates. The test drug, the Epithelial Cell Kinase (ECK), Mg^++, sodium vanadate (a protein tyrosine phosphatase inhibitor), and an appropriate buffer to maintain pH (7.2) are then added to the immobilized substrate-containing microtiter wells. ATP is then added to initiate phosphorylation. After incubation, the assay plates are washed with a suitable buffer leaving behind phosphorylated peptide which is exposed to horse radish peroxidase (HRP)-conjugated anti-phosphotyrosine monoclonal antibody. The antibody-treated plates are washed again and the HRP activity in individual wells is quantified as a reflection of degree of substrate phosphorylation. […] Multiple entries for a given compound indication it was tested multiple times.

[3] = coupled MEK 1 / ERK2; separate entries = separate tests; read-out: Mek and Erk

Chain of Mek and Erk (Q02750 whole entry): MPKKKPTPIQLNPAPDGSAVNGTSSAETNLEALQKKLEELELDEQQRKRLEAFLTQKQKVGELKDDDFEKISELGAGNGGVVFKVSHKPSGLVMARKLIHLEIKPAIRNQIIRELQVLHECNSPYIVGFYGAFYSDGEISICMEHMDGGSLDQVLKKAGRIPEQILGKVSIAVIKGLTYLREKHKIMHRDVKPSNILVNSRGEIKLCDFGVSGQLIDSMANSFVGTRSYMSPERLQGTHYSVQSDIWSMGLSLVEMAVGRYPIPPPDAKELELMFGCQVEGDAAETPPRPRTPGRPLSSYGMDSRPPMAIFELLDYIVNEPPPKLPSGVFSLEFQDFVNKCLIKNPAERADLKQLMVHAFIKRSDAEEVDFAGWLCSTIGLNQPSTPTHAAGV
Chain of Mek and Erk (P28482 2-360): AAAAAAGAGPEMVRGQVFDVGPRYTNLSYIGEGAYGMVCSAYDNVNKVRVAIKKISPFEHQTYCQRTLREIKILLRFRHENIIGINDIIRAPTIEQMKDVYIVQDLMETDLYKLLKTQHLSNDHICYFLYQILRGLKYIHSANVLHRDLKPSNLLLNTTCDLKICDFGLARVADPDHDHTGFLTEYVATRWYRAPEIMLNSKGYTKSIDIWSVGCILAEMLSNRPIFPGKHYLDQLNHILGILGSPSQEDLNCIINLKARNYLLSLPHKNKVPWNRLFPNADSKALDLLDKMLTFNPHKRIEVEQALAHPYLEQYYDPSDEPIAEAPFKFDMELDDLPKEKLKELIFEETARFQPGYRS
Chain of Epithelial Cell Kinase (ECK) (P29317 24-976, species assumed): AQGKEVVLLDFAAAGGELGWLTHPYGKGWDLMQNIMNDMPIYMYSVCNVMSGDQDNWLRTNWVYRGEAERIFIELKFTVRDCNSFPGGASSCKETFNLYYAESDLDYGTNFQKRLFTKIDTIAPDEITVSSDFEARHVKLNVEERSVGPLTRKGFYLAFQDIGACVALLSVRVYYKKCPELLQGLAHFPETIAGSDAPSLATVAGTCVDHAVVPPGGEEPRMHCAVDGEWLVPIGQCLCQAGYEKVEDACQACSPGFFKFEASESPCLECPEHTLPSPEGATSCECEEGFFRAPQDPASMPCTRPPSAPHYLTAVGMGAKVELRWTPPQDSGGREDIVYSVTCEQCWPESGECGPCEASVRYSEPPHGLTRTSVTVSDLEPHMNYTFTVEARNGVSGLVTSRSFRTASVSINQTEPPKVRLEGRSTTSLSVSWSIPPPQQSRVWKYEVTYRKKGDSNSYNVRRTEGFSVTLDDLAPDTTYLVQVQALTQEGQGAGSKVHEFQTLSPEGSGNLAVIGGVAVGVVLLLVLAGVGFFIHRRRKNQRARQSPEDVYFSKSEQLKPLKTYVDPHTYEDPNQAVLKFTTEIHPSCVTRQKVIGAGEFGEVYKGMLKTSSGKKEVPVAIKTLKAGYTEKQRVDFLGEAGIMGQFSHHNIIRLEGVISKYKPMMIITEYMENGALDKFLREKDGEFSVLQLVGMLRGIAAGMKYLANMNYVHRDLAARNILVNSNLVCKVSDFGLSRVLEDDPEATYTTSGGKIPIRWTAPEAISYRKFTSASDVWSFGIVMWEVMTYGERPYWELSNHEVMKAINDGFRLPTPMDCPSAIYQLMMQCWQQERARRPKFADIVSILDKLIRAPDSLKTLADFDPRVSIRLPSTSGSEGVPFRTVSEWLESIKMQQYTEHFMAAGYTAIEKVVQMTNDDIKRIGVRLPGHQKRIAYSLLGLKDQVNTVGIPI
Chain of erbB2 (P04626 23-1255): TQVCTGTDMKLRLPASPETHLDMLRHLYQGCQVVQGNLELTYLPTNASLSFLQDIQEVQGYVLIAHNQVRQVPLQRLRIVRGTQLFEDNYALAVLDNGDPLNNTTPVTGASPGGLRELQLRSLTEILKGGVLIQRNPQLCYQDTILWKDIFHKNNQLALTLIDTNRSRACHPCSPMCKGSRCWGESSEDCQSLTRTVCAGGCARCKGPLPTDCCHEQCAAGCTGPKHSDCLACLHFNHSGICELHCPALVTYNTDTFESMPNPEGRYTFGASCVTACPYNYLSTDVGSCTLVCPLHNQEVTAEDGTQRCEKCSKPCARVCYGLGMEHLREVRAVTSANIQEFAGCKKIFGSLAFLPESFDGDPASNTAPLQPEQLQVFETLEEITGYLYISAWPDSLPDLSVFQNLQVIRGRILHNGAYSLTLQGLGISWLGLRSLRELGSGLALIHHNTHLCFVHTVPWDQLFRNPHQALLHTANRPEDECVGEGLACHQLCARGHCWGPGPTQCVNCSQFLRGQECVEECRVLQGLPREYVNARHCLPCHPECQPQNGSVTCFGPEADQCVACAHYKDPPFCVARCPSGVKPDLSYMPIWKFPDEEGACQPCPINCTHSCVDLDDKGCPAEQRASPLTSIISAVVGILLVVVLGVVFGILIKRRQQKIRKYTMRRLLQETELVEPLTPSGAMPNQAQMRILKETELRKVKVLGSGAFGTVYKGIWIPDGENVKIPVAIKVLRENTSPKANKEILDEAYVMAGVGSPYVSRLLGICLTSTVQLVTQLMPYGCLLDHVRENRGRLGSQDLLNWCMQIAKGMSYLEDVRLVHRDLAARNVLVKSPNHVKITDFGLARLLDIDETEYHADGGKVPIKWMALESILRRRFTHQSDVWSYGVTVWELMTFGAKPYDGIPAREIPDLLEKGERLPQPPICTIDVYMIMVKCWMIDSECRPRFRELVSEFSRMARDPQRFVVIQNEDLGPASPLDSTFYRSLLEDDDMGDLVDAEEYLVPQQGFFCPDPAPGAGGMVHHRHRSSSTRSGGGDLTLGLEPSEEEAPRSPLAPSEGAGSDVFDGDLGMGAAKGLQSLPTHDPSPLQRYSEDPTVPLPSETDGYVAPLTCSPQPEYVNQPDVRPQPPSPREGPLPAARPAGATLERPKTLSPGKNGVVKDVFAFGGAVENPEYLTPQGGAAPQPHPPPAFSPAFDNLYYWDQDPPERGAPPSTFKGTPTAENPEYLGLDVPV
T1 sequence (P00533 669-1210): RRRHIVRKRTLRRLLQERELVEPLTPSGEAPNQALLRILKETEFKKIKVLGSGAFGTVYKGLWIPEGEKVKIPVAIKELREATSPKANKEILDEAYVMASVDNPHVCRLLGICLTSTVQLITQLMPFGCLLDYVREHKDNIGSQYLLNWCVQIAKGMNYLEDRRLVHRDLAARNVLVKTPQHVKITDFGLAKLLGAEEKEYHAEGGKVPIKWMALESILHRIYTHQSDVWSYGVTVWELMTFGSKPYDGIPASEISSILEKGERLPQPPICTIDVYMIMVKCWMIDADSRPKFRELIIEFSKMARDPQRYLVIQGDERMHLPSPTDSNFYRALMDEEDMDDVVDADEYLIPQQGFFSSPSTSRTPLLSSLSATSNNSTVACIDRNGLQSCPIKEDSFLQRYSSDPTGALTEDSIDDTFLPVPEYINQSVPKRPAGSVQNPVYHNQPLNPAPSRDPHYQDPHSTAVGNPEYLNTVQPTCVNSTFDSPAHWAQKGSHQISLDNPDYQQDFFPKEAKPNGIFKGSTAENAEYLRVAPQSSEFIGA

SMILES	IC50 (MDAMB435) [µg/mL]	IC50 (SKBR3) [µg/mL]	IC50 (SW620) [µg/mL]	IC50 (A431) [µg/mL]	inhibition at 2 µg/mL (erbB2) [%]	IC50 (Mek and Erk; [3]) [nM]	IC50 [1] [nM]	other results
COCCOCC#CC(=O)Nc1ccc2ncc(C#N)c(Nc3cccc(Br)c3)c2c1 [Example 72, 4-(2-Methoxy-ethoxy)-but-2-ynoic acid [4-(3-bromo-phenylamino)-3-cyano-quinolin-6-yl]-amide]	3.5 (≈ 7.3 µM)	0.8 (≈ 1.67 µM)	0.4 (≈ 0.834 µM)	0.9 (≈ 1.88 µM)	96	> 100000	6	IC50 [2]: > 41700 nM
COc1cc2ncc(C#N)c(Nc3ccc(F)c(Cl)c3)c2cc1NC(=O)C=CCN1CCN(CCO)CC1 [Example 108, 4-[4-(2-Hydroxy-ethyl)-piperazin-1-yl]-but-2-enoic acid [4-(3-chloro-4-fluoro-phenylamino)-3-cyano-7-methoxy-quinolin-6-yl]-amide]							26	
C=CCN(C)CC#CC(=O)Nc1ccc2ncc(C#N)c(Nc3cccc(Br)c3)c2c1 [Example 77, N-[4-[(3-Bromophenyl)amino]-3-cyano-6-quinolinyl]-4-(N-allyl-N-methylamino)-2-butynamide]	0.1 (≈ 0.211 µM)	0.02 (≈ 0.0422 µM)	0.1 (≈ 0.211 µM)	0.03 (≈ 0.0632 µM)	105	> 100000	6	IC50 ([2]; IC50 = concentration that inhibits substrate phosphorylation by 50%): 42200 nM
COCCN(CC#CC(=O)Nc1ccc2ncc(C#N)c(Nc3cccc(Br)c3)c2c1)CCOC [Example 75, N-[4-[(3-Bromophenyl)amino]-3-cyano-6-quinolinyl]-4-(bis-(2-methoxyethyl)amino)-2-butynamide]	0.2 (≈ 0.373 µM)	0.04 (≈ 0.0746 µM)	0.5 (≈ 0.932 µM)	0.1 (≈ 0.186 µM)		100000	0.4	
COc1cc2ncc(C#N)c(Nc3ccc(F)c(Cl)c3)c2cc1NC(=O)C=CCN(CC(C)O)CC(C)O (centres unmarked) [Example 115, 4-[Bis-(2-hydroxy-propyl)-amino]-but-2-enoic acid [4-(3-chloro-4-fluoro-phenylamino)-3-cyano-7-methoxy-quinolin-6-yl]-amide]							5	
COCOCC#CC(=O)Nc1ccc2ncc(C#N)c(Nc3cccc(Br)c3)c2c1 [Example 74, 4-Methoxymethoxy-but-2-ynoic acid [4-(3-bromo-phenylamino)-3-cyano-quinolin-6-yl]-amide]					95	> 100000		IC50 [2]: > 43000 nM
C=CCN(CC=C)CC=CC(=O)Nc1cc2c(Nc3ccc(F)c(Cl)c3)c(C#N)cnc2cc1OC [Example 103, 4-Diallylamino-but-2-enoic acid [4-(3-chloro-4-fluoro-phenylamino)-3cyano-7-methoxy-quinolin-6-yl]-amide]							8	
COc1cc2ncc(C#N)c(Nc3ccc(F)c(Cl)c3)c2cc1NC(=O)C=CCN1CCC(O)(O)CC1 [Example 119, 4-(4,4-Dihydroxy-piperidin-1-yl)-but-2-enoic acid [4-(3-chloro-4-fluoro-phenylamino)-3-cyano-7-methoxy-quinolin-6-yl]-amide]							0.05	
COC[C@@H]1CCCN1CC#CC(=O)Nc1ccc2ncc(C#N)c(Nc3cccc(Br)c3)c2c1 [Example 79, 4-((2S)-2-Methoxymethylpyrrolidin-1-yl)but-2-ynoic Acid [4-(3-bromophenylamino)-3-cyanquinolin-6-yl]amide]	0.3 (≈ 0.579 µM)	0.01 (≈ 0.0193 µM)	0.1 (≈ 0.193 µM)	0.04 (≈ 0.0772 µM)			0.36	
COc1cc2ncc(C#N)c(Nc3ccc(F)c(Cl)c3)c2cc1NC(=O)C=CC[n+]1csc(C)c1 [Example 95, 3-{3-[4-(3-Chloro-4-fluoro-phenylamino)-3-cyano-7-methoxy-quinolin-6-ylcarbamoyl]-allyl}-5-methyl-thiazol-3-ium bromide]							5	
COCCN(C)CC#CC(=O)Nc1ccc2ncc(C#N)c(Nc3cccc(Br)c3)c2c1 [Example 76, N-[4-[(3-Bromophenyl)amino]-3-cyano-6-quinolinyl]-4-(N-methoxyethyl-N-methylamino)-2-butynamide]	0.284 (≈ 0.577 µM)	0.031 (≈ 0.063 µM)	0.239 (≈ 0.485 µM)	0.05 (≈ 0.102 µM)	96	> 100000	10	
CCOc1c(Nc2ccc3ncc(C#N)c(Nc4cccc(Br)c4)c3c2)c(=O)c1=O [Example 85, 4-(3-Bromo-phenylamino)-6-(2-ethoxy-3,4-dioxo-cyclobut-1-enylamino)-quinoline-3-carbonitrile]	27.6 (≈ 59.6 µM)	1.74 (≈ 3.76 µM)	18 (≈ 38.8 µM)	4.91 (≈ 10.6 µM)	87			IC50 (Mek and Erk; read-out: Mek and Erk; coupled MEK 1 / ERK2; separate entries = separate tests): 1800 nM
COc1cc2ncc(C#N)c(Nc3ccc(F)c(Cl)c3)c2cc1NC(=O)C=CCN(CCO)CCO [Example 106, 4-[Bis-(2-hydroxy-ethyl)-amino]-but-2-enoic acid [4-(3-chloro-4-fluoro-phenylamino)-3-cyano-7-methoxy-quinolin-6-yl]-amide]							13	
COc1cc2ncc(C#N)c(Nc3ccc(F)c(Cl)c3)c2cc1NC(=O)C=CCN1CCSCC1 [Example 107, 4-Thiomorpholin-4-yl-but-2-enoic acid [4-(3-chloro-4-fluoro-phenylamino)-3-cyano-7-methoxy-quinolin-6-yl]-amide]							500	
COc1cc2ncc(C#N)c(Nc3ccc(F)c(Cl)c3)c2cc1NC(=O)C=CC[n+]1cscc1C [Example 96, 3-{3-[4-(3-Chloro-4-fluoro-phenylamino)-3-cyano-7-methoxy-quinolin-6-ylcarbamoyl]-allyl}-4-methyl-thiazol-3-ium bromide]							100	
CN1CCC=C(C(=O)Nc2ccc3ncc(C#N)c(Nc4cccc(Br)c4)c3c2)C1 [Example 78, 1-Methyl-1,2,5,6-tetrahydro-pyridine-3-carboxylic acid [4-(3-bromo-phenylamino)-3-cyano-quinolin-6-yl]-amide]	3.19 (≈ 6.91 µM)	1.5 (≈ 3.23 µM)	> 5	0.369 (≈ 0.798 µM)	53	40000		IC50 [2]: > 21300 nM
COc1cc2ncc(C#N)c(Nc3ccc(F)c(Cl)c3)c2cc1NC(=O)C=CCN1CCOCCOCCOCC1 [Example 109, 4-(1,4,7-Trioxa-10-aza-cyclododec-10-yl)-but-2-enoic acid [4-(3-chloro-4-fluoro-phenylamino)-3-cyano-7-methoxy-quinolin-6-yl]-amide]							7	
